The values that follow are results of earlier work, collected in patent US12599131B2, “Disinfectant composition” (KAO CORPORATION, priority 2020, dated 2026).

Each structure is given as a SMILES string.

For this series the following is noted: 0.1 mol/L in water, Handbook of Chemistry or Chemicalize.
As for `CCCCCCCCC(CCCCCC)C(=O)O` (stereo not drawn) [2-hexyldecanoic acid], the “pKa (25° C.)” value is 5.12.
For the molecule `CCCCCCCCC(CCCCCCCC)C(=O)O` [2-octyldecanoic acid], the “pKa (25° C.)” value was 4.98.
Take `O=C(O)CCCCC(=O)O` [adipic acid]: the “pKa (25° C.)” value was 4.3.
For `CCCCCCCCCC(=O)O` [capric acid], the “pKa (25° C.)” value was 4.95.
Regarding `CCCCCC(=O)O` [caproic acid], the “pKa (25° C.)” value is recorded as 4.6.
In the case of `O=CO` [formic acid], the “pKa (25° C.)” value is listed as 3.54.
